The values below are quoted from earlier work in patent US6353019B1, “Macrocyclic lactones, compositions, and methods of use” (United States of America as represented by the Department …, priority 1997, dated 2002).

The conditions of the series: reported by Suzumure et al., Tetrahedron Lett. 1997; cited from earlier work.

lobatamide A: the antifungal activity result is on record as “weak antifungal activity”.
